From patent publication US20230398130A1, “METHODS AND COMPOSITIONS FOR DIFFERENTIATING STEM CELLS” (Massachusetts Institute of Technology, priority 2020, published 2023)

Legend:
[1] = system: ISC-enriched organoids; assay: Primary screen, 384-well 2.5-D organoid differentiation (ENR+CD, 6 days): basal lysozyme secretion (LYZ.NS); type: cell-based, murine; settings: for Dose.FC.LYZ.NS: FC vs plate median; for Z.LYZ.NS: standard z score of FC; for Dose.FC.LYZ.NS (log 2 fold change) / Dose.FC.LYZ.NS (log 2 fold change, basal lysozyme secretion): vs plate median
Source text: (§1) High-throughput screening.

[2] = system: ISC-enriched organoids; assay: Primary screen, 384-well 2.5-D organoid differentiation (ENR+CD, 6 days): carbachol-induced lysozyme secretion (LYZ.S); type: cell-based, murine; settings: for Dose.FC.LYZ.S / Dose.FC.LYZ.S (log 2 fold change): primary screen; for Dose.FC.LYZ.S: FC vs plate median; for Dose.FC.LYZ.S (log 2 fold change) / Dose.FC.LYZ.S (log 2 fold change, carbachol-induced lysozyme secretion): vs plate median
Source text: as §1

[3] = system: ISC-enriched organoids; assay: Primary screen, 384-well 2.5-D organoid differentiation (ENR+CD, 6 days, Target Selective Inhibitor Library, vs whole-plate median): ATP (CellTiter-Glo 3D, CTG); settings: for Dose.FC.CTG: FC vs plate median; for Z.CTG: standard z score of FC; for Dose.FC.CTG (log 2 fold change) / Dose.FC.CTG (log 2 fold change, ATP): vs plate median

Substance | Z.LYZ.NS (standard z score) ([1]; Dose 0.08 uM, primary screen) | Dose.FC.LYZ.NS (log 2 fold change) ([1]; Dose 0.08 uM, primary screen) | Z.LYZ.NS (standard z score) ([1]; Dose 0.40 uM, primary screen) | Dose.FC.LYZ.NS (log 2 fold change) ([1]; Dose 0.40 uM, primary screen) | Z.LYZ.NS (standard z score) ([1]; Dose 2.00 uM, primary screen) | Dose.FC.LYZ.NS (log 2 fold change) ([1]; Dose 2.00 uM, primary screen) | Z.LYZ.NS (standard z score) ([1]; Dose 10.00 uM, primary screen) | Dose.FC.LYZ.NS (log 2 fold change) ([1]; Dose 10.00 uM, primary screen) | Dose.FC.LYZ.S (log 2 fold change) ([2]; Dose 0.08 uM) | Dose.FC.LYZ.S (log 2 fold change) ([2]; Dose 0.40 uM) | Dose.FC.LYZ.S (log 2 fold change) ([2]; Dose 2.00 uM) | Dose.FC.LYZ.S (log 2 fold change) ([2]; Dose 10.00 uM) | Z.CTG (standard z score) ([3]; Dose 0.08 uM, primary screen) | Dose.FC.CTG (log 2 fold change) ([3]; Dose 0.08 uM, primary screen) | Z.CTG (standard z score) ([3]; Dose 0.40 uM, primary screen) | Dose.FC.CTG (log 2 fold change) ([3]; Dose 0.40 uM, primary screen) | Z.CTG (standard z score) ([3]; Dose 2.00 uM, primary screen) | Dose.FC.CTG (log 2 fold change) ([3]; Dose 2.00 uM, primary screen) | Z.CTG (standard z score) ([3]; Dose 10.00 uM, primary screen) | Dose.FC.CTG (log 2 fold change) ([3]; Dose 10.00 uM, primary screen) | also measured
OG-L002 | – | – | – | – | – | – | – | – | – | – | – | – | – | – | – | – | – | – | – | – | Dose.FC.LYZ.NS ([1]; Dose 0.08 uM, primary screen): 0.000 log 2 fold change; Z.LYZ.NS ([1]; Dose 0.08 uM): −0.001; Dose.FC.LYZ.NS ([1]; Dose 0.40 uM, primary screen): −0.011 log 2 fold change; Z.LYZ.NS ([1]; Dose 0.40 uM): −0.097; Dose.FC.LYZ.NS ([1]; Dose 2.00 uM, primary screen): 0.021 log 2 fold change; Z.LYZ.NS ([1]; Dose 2.00 uM): 0.182; Dose.FC.LYZ.NS ([1]; Dose 10.00 uM, primary screen): −0.091 log 2 fold change; Z.LYZ.NS ([1]; Dose 10.00 uM): −0.790; Dose.FC.LYZ.S ([2]; Dose 0.08 uM): 0.023 log 2 fold change; Dose.FC.LYZ.S ([2]; Dose 0.40 uM): 0.026 log 2 fold change; Dose.FC.LYZ.S ([2]; Dose 2.00 uM): −0.001 log 2 fold change; Dose.FC.LYZ.S ([2]; Dose 10.00 uM): −0.084 log 2 fold change; Dose.FC.CTG ([3]; Dose 0.08 uM, primary screen): 0.094 log 2 fold change; Z.CTG ([3]; Dose 0.08 uM): 0.225; Dose.FC.CTG ([3]; Dose 0.40 uM, primary screen): 0.138 log 2 fold change; Z.CTG ([3]; Dose 0.40 uM): 0.329; Dose.FC.CTG ([3]; Dose 2.00 uM, primary screen): 0.128 log 2 fold change; Z.CTG ([3]; Dose 2.00 uM): 0.306; Dose.FC.CTG ([3]; Dose 10.00 uM, primary screen): 0.094 log 2 fold change; Z.CTG ([3]; Dose 10.00 uM): 0.225
S3I-201 | 0.445 | 0.051 | 0.527 | 0.061 | 0.212 | 0.024 | −0.143 | −0.016 | 0.033 | 0.157 | −0.004 | −0.052 | 0.766 | 0.321 | 0.382 | 0.160 | 0.188 | 0.079 | −0.334 | −0.140 | –
SN-38 | −2.391 | −0.275 | −2.505 | −0.288 | −2.655 | −0.305 | −2.606 | −0.299 | −0.419 | −0.402 | −0.391 | −0.404 | −1.720 | −0.720 | −2.606 | −1.091 | −2.929 | −1.226 | −2.785 | −1.166 | –
SNS-314 Mesylate | −0.620 | −0.071 | −0.515 | −0.059 | −1.111 | −0.128 | −1.109 | −0.127 | −0.115 | −0.103 | −0.133 | −0.198 | −1.591 | −0.666 | −1.857 | −0.777 | −1.142 | −0.478 | −1.480 | −0.620 | –
VU 0364439 | – | – | – | – | – | – | – | – | – | – | – | – | – | – | – | – | – | – | – | – | Z.LYZ.NS (standard z score) ([1]; dose 0.08 uM): 0.715; Dose.FC.LYZ.NS (log 2 fold change, basal lysozyme secretion) ([1]; dose 0.08 uM): 0.082; Z.LYZ.NS (standard z score) ([1]; dose 0.40 uM): 0.099; Dose.FC.LYZ.NS (log 2 fold change, basal lysozyme secretion) ([1]; dose 0.40 uM): 0.011; Z.LYZ.NS (standard z score) ([1]; dose 2.00 uM): 0.089; Dose.FC.LYZ.NS (log 2 fold change, basal lysozyme secretion) ([1]; dose 2.00 uM): 0.010; Z.LYZ.NS (standard z score) ([1]; dose 10.00 uM): −0.476; Dose.FC.LYZ.NS (log 2 fold change, basal lysozyme secretion) ([1]; dose 10.00 uM): −0.055; Dose.FC.LYZ.S (log 2 fold change, carbachol-induced lysozyme secretion) ([2]; dose 0.08 uM): 0.108; Dose.FC.LYZ.S (log 2 fold change, carbachol-induced lysozyme secretion) ([2]; dose 0.40 uM): 0.124; Dose.FC.LYZ.S (log 2 fold change, carbachol-induced lysozyme secretion) ([2]; dose 2.00 uM): −0.043; Dose.FC.LYZ.S (log 2 fold change, carbachol-induced lysozyme secretion) ([2]; dose 10.00 uM): −0.038; Z.CTG (standard z score) ([3]; dose 0.08 uM): 0.058; Dose.FC.CTG (log 2 fold change, ATP) ([3]; dose 0.08 uM): 0.024; Z.CTG (standard z score) ([3]; dose 0.40 uM): −0.289; Dose.FC.CTG (log 2 fold change, ATP) ([3]; dose 0.40 uM): −0.121; Z.CTG (standard z score) ([3]; dose 2.00 uM): −0.616; Dose.FC.CTG (log 2 fold change, ATP) ([3]; dose 2.00 uM): −0.258; Z.CTG (standard z score) ([3]; dose 10.00 uM): 0.022; Dose.FC.CTG (log 2 fold change, ATP) ([3]; dose 10.00 uM): 0.009
VU 0364770 | – | – | – | – | – | – | – | – | – | – | – | – | – | – | – | – | – | – | – | – | Z.LYZ.NS (standard z score) ([1]; dose 0.08 uM): 1.350; Dose.FC.LYZ.NS (log 2 fold change, basal lysozyme secretion) ([1]; dose 0.08 uM): 0.155; Z.LYZ.NS (standard z score) ([1]; dose 0.40 uM): 0.736; Dose.FC.LYZ.NS (log 2 fold change, basal lysozyme secretion) ([1]; dose 0.40 uM): 0.085; Z.LYZ.NS (standard z score) ([1]; dose 2.00 uM): 1.020; Dose.FC.LYZ.NS (log 2 fold change, basal lysozyme secretion) ([1]; dose 2.00 uM): 0.117; Z.LYZ.NS (standard z score) ([1]; dose 10.00 uM): 0.884; Dose.FC.LYZ.NS (log 2 fold change, basal lysozyme secretion) ([1]; dose 10.00 uM): 0.102; Dose.FC.LYZ.S (log 2 fold change, carbachol-induced lysozyme secretion) ([2]; dose 0.08 uM): 0.082; Dose.FC.LYZ.S (log 2 fold change, carbachol-induced lysozyme secretion) ([2]; dose 0.40 uM): 0.125; Dose.FC.LYZ.S (log 2 fold change, carbachol-induced lysozyme secretion) ([2]; dose 2.00 uM): 0.139; Dose.FC.LYZ.S (log 2 fold change, carbachol-induced lysozyme secretion) ([2]; dose 10.00 uM): 0.066; Z.CTG (standard z score) ([3]; dose 0.08 uM): 0.031; Dose.FC.CTG (log 2 fold change, ATP) ([3]; dose 0.08 uM): 0.013; Z.CTG (standard z score) ([3]; dose 0.40 uM): 0.204; Dose.FC.CTG (log 2 fold change, ATP) ([3]; dose 0.40 uM): 0.085; Z.CTG (standard z score) ([3]; dose 2.00 uM): 0.199; Dose.FC.CTG (log 2 fold change, ATP) ([3]; dose 2.00 uM): 0.083; Z.CTG (standard z score) ([3]; dose 10.00 uM): −0.246; Dose.FC.CTG (log 2 fold change, ATP) ([3]; dose 10.00 uM): −0.103
